# Columns and labels:
# [1] = tested on: IL-12 p40, IL-6, and TNF-α; experiment: ELISA of pro-inflammatory cytokine production in CpG-ODN-stimulated bone marrow-derived macrophage; format: cell-based, mouse; conditions: compound 5, 10, 20, 50 μM for 1 hour before CpG-ODN (1 μM), FIG. 4
# Procedure: (§1) Bone marrow-derived dendritic cells (BMDC) and macrophage (BMDM) were obtained from a wild-type C57BL/6 mouse. To be brief, bone marrow cells were obtained by flushing a tibia and femur of the mouse with DMEM (Dulbecco's modified Eagles medium). The cells were cultured in a medium RPMI 1640 including 10% heat-inactivated FBS (Gibco, NY, U.S.A.), 50 μM of β-mercapto ethanol, and 2 mM glutamine and supplemented with 3% hybridoma cell culture supernatant J558L containing granulocyte-macrophage colony-stimulating factor (GM-CSF) for BMDCs.
# Further, the obtained bone marrow cells were cultured in a DMEM including 20% heat-inactivated FBS, a 30% L929 cell culture supernatant containing a macrophage colony-stimulating factor, and 1% penicillin-streptomycin for BMDMs.
# (§2) In order to check whether the Sargassum muticum extracts obtained in the present invention has an anti-inflammatory and an immunomodulatory activity, the following experiments were conducted with the Sargassum muticum extracts obtained in Example <1-1>. That is, bone marrow-derived macrophage and dendritic cells cultured as described above were seeded at 1×10^5 cells/0.5 ml in a 48-well plate. […] Supernatants were harvested 18 hour after stimulation. Amounts of IL-12 p40, IL-6, and TNF-α were measured using ELISA (BD PharMingen, CA, USA and R&D system, MN, USA). […]
# [2] = tested on: IL-12 p40, IL-6, and TNF-α; experiment: ELISA of pro-inflammatory cytokine production in CpG-ODN-stimulated bone marrow-derived dendritic cells; format: cell-based, mouse; conditions: compound 5, 10, 20, 50 μM for 1 hour before CpG-ODN (1 μM), FIG. 5
# Procedure: as §1
# as §2, with “USA). At this time, a non-treated group, a group treated with the extracts only, and a group treated with CpG-ODN only without treatment with the extracts were used as a control group.” for “USA).”
# ERK1/2 (ERK p44/p42) = experiment: Western blot of MAPK phosphorylation in CpG-ODN-stimulated macrophages; format: cell-based, mouse; conditions: macrophages pre-treated at 20 μM for 1 hour before CpG-ODN; FIG. 6A
# Procedure: (§3) In order to check whether the apo-9′-fucoxanthinone compound has an effect on activities of MAPK and NF-κB that are upstream signal transduction pathways for pro-inflammatory cytokine production, a Western blot analysis was conducted as follows. That is, the macrophages were dispensed to 60-mm culture dishes at 4×10^6 cells per dish, and then cultured for 24 hours at 37° C. The cells were pre-treated with the apo-9′-fucoxanthinone compound at a concentration of 20 μM for 1 hour before treatment with CpG-ODN. The cells were collected and dissolved using a lysis buffer (PRO-PREP Lysis buffer, iNtRON Biotechnology). Protein samples were electrophoresed in 10%-SDS PAGE, and then electrophoresed in a polyvinylidene fluoride membrane, and then treated and reacted with phospho-p44/42 (P-ERK p44/p42), phospho-p38 (P-p38), p38 MAPK, phospho-SAPK/JNK (P-JNK), phospho-IκBα, and IκBα (Cell Signaling Technology, MA, USA) as 1/1000 diluted primary antibodies. Thereafter, the membrane was washed and treated and reacted with horseradish peroxidase-linked anti-rabbit IgG (Cell Signaling Technology). Then, a signal was checked using a WEST-ZOL plus western blot detection system (iNtRON Biotechnology).
# IκBα = experiment: Western blot of degradation and phosphorylation of IκBα in CpG-ODN-stimulated macrophages; format: cell-based, mouse; conditions: macrophages pre-treated at 20 μM for 1 hour before CpG-ODN; FIG. 6B
# Procedure: as §3
# AP-1 = AP-1 reporter luciferase assay in TLR9-transfected HEK293T cells stimulated with CpG-ODN; format: cell-based; conditions: HEK293T cells transfected with murine TLR9-expressing plasmid; pre-treated 1 hour before CpG DNA (1 μM), 18 hour; FIG. 7
# Procedure: It is known that activation of an MAPK signaling pathway activates a transcriptional factor AP-1, thereby increasing a DNA binding activity of AP-1 and expression of an AP-1-dependent gene. […] Firstly, HEK239T cells were plated in a 24-well plate and cultured overnight. Then, HEK293T cells were transfected with pcDNA3 (empty vector) or pcDNA3-mTLR9 that expresses murine TLR9, with an AP-1 reporter gene and pRLnull (Promega, WI, USA) using a Fugene 6 (Roche, UN, USA). Cells were then further incubated for 24 hour, and then pre-treated with the apo-9′-fucoxanthinone compound at each concentration as described in the above Examples for 1 hour before stimulation with CpG DNA (1 μM). After further incubation for 18 hour, the cells were lysed with a passive lysis buffer (Promega), and then analyzed using a dual luciferase reporter assay system (Promega). All of the experiments were repeated three times, and the results thereof were expressed in the fold increase.
# NLRP3 inflammasome = target: T1, NLRP3 inflammasome (Mus musculus, UniProt Q8R4B8); experiment: ELISA of IL-1β production induced by ATP in LPS primed BMDMs; format: cell-based; conditions: BMDMs primed with LPS 10 ng/ml 18 hours; compound 6.25, 12.5, 25, 50 μM 1 hour; ATP 5 mM 2 hours; FIG. 9 upper graph
# T1 construct: checked a degree of IL-1β production induced by ATP in LPS primed BMDMs using ELISA; endogenous in cells; host or cells: bone marrow-derived macrophages (BMDM) from wild-type C57BL/6 mouse, LPS-primed and ATP-stimulated
# T1 sequence (Q8R4B8 whole entry): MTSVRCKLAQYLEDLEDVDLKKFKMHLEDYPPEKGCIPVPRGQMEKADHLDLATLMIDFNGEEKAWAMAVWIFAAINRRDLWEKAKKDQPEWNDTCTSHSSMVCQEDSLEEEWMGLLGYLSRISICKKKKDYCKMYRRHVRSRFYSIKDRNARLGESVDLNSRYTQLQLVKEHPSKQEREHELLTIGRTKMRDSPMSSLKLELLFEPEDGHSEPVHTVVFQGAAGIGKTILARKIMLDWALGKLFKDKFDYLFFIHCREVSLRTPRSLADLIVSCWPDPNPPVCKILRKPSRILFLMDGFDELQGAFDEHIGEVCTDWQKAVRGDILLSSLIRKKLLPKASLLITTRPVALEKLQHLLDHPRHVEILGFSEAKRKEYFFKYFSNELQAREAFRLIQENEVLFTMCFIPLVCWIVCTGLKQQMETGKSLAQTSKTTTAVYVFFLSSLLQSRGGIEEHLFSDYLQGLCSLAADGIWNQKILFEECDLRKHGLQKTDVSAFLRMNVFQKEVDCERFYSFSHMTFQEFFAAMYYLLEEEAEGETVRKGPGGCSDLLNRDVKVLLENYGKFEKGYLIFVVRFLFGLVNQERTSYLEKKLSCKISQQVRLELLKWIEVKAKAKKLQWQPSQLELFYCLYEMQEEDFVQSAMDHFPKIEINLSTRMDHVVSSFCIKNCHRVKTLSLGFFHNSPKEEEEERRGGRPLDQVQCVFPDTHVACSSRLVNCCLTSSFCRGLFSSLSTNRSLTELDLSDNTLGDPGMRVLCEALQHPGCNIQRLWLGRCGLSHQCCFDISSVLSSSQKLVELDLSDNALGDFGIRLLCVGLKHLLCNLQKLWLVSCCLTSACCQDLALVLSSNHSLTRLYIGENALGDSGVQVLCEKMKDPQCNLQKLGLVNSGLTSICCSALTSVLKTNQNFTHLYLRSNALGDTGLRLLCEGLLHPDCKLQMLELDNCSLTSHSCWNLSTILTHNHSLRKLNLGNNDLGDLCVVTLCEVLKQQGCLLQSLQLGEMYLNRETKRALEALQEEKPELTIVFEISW
# Procedure: When LPS primed bone marrow-derived macrophages are treated with ATP, NLPR3 inflammasome is activated, and, thus, IL-1β is secreted. Therefore, in order to check whether the apo-9′-fucoxanthinone compound has an effect of inhibiting the NLRP3 inflammasome, the inventors of the present invention checked a degree of IL-1β production induced by ATP in LPS primed BMDMs using ELISA To do so, the bone marrow-derived macrophages cultured in the same manner as Example 2 were dispensed at 1×10^5 cells/0.5 ml in a 48-well plate, and these cells were treated with LPS at a concentration of 10 ng/ml for 18 hours. Then, the cells were treated with the apo-9′-fucoxanthinone compound at each concentration (0, 6.25, 12.5, 25, and 50 μM) for 1 hour. At 2 hours after treatment with ATP at a concentration of 5 mM, a cell culture medium was obtained and an expression amount of IL-1β was measured using ELISA (R&D system, MN, USA). Further, as a positive control group, a group treated with 10 μM parthenolide (described as “part” in the drawings) known as an NLRP3 inflammasome inhibitor was used.
# [3] = tested on: bone marrow-derived macrophages; experiment: MTT assay of pyroptotic cell death of bone marrow-derived macrophages treated with LPS and ATP; format: cell-based, mouse; conditions: bone marrow-derived macrophages treated with both LPS and ATP; compound 6.25-50 μM; FIG. 9 lower graph
# Procedure: When LPS primed bone marrow-derived macrophages are treated with ATP, NLPR3 inflammasome is activated, and, thus, IL-1β is secreted. Therefore, in order to check whether the apo-9′-fucoxanthinone compound has an effect of inhibiting the NLRP3 inflammasome, the inventors of the present invention checked a degree of IL-1β production induced by ATP in LPS primed BMDMs using ELISA To do so, the bone marrow-derived macrophages cultured in the same manner as Example 2 were dispensed at 1×10^5 cells/0.5 ml in a 48-well plate, and these cells were treated with LPS at a concentration of 10 ng/ml for 18 hours. Then, the cells were treated with the apo-9′-fucoxanthinone compound at each concentration (0, 6.25, 12.5, 25, and 50 μM) for 1 hour. At 2 hours after treatment with ATP at a concentration of 5 mM, a cell culture medium was obtained and an expression amount of IL-1β was measured using ELISA (R&D system, MN, USA). […]
# That is, the cells treated as described above were treated with 0.2 mg of an MTT reagent and cultured at a temperature of 37° C. for 4 hours. After culture, the cells were collected and formazan crystals in each well were dissolved in 250 μl of DMSO, and then, an absorbance at 540 nm was measured to measure cell viability.
compound,measurement,setting,value
CC(=O)C=C=C1C(C)(C)C[C@H](OC(C)=O)C[C@@]1(C)O [apo-9′-fucoxanthinone],"pro-inflammatory cytokine production (IL-12 p40, IL-6, TNF-α)",[1],effectively inhibiting
same,"pro-inflammatory cytokine production (IL-12 p40, IL-6, TNF-α)",[2],effectively inhibiting
same,phosphorylation of ERK1/2 (ERK p44/p42),ERK1/2 (ERK p44/p42),strongly inhibited
same,degradation and phosphorylation of IκBα,IκBα,did not greatly affect
same,AP-1-dependent luciferase activity,AP-1,decreased in a dose-dependent manner
same,production of IL-1β,NLRP3 inflammasome,effectively inhibited in a dose-dependent manner
same,"pyroptotic cell death (cell viability, MTT)",[3],inhibiting pyroptotic cell death
